US5217877A, “Process for the preparation of α-glucosidase inhibitor, pradimicin Q” (Bristol-Myers Squibb Company, priority 1991, dated 1993)
≈ marks a conversion by molar mass, not a printed value.

Key:
[1] = target: T1, α-glucosidase (Sigma G-5003) (Saccharomyces cerevisiae, UniProt P53341); assay: α-Glucosidase inhibitory activity (p-nitrophenyl-α-D-glucopyranoside hydrolysis); assay type: biochemical; conditions: for IC50 / IC50 (α-glucosidase inhibitory activity): 37° C., 15 minutes, pH 6.8, 0.7 mM p-nitrophenyl-α-D-glucopyranoside
T1 construct: purchased Sigma G-5003
Experimental: Forty μl of α-glucosidase (Sigma G-5003, #11 U/mg protein) (0.1 mg/ml in 100 mM phosphate buffer, pH 6.8=[…]) for tests (or the buffer for the control), 950 μl of 0.7 mM p-nitrophenyl-α-D-glucopyranoside (Sigma N1377), and 10 μl of the assay compound (various concentrations dissolved in DMSO) were mixed and incubated at 37° C. for 15 minutes. To the reaction mixture, 1.0 ml of 0.2N NaOH and then 1.0 ml of n-butanol were added and voltex-mixed. […] IC50 was determined from a standard curve of p-nitrophenol released when the assay was run without the test compound (0% inhibition) and when the assay was run without the enzyme (100% inhibition).

mouse melanoma B16 cells = assay: cells; conditions: B16, read-out: cytotoxic activity IC50

T1 sequence (P53341 whole entry): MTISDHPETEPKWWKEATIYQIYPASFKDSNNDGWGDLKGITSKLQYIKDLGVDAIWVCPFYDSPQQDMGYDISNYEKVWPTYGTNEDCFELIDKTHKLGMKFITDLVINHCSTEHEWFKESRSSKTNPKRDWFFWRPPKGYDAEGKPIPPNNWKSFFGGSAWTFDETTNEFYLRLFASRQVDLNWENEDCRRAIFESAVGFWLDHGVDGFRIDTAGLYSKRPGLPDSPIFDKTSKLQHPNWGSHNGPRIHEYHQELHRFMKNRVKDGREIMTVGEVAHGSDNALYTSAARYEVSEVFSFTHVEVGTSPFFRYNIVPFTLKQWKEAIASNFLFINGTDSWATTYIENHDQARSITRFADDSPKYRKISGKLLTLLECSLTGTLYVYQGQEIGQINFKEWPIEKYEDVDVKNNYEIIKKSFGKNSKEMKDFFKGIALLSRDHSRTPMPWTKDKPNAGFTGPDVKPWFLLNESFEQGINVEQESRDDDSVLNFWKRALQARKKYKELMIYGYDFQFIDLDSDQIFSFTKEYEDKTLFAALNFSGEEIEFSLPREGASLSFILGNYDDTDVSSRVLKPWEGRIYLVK

Row | Compound | IC50 [1] | α-glucosidase inhibitory activity (in words) [1] | IC50 (α-glucosidase inhibitory activity) [1] | IC50 (mouse melanoma B16 cells)
1 | COc1cc(O)c2c(c1)C(=O)c1c(O)c3c(c(OC)c1C2=O)C(O)C(O)c1cc(C)c(C(=O)NC(C)C(=O)O)c(O)c1-3 (stereo not drawn) [Benanomicin C, benanomicin C] | 107 µM |  |  | 
2 | COc1cc(O)c2c(c1)C(=O)c1c(cc3c(c1O)-c1c(cc(C)c(C(=O)N[C@H](CO)C(=O)O)c1O)[C@H](O[C@@H]1O[C@H](C)[C@H](N(C)C)[C@H](O[C@@H]4OC[C@@H](O)[C@H](O)[C@H]4O)[C@H]1O)[C@H]3O)C2=O [N,N-dimethylpradimicin FA-2] |  | no α-glucosidase inhibitory activity | > 100 µg/mL | 
3 | CNC1C(C)OC(OC2c3cc(C)c(C(=O)NC(C)C(=O)O)c(O)c3-c3c(cc4c(c3O)C(=O)c3cc(OC)cc(O)c3C4=O)C2O)C(O)C1OC1OCC(O)C(O)C1O (stereo not drawn) [Pradimicin A] | > 119 µM | no α-glucosidase inhibitory activity |  | 
4 | CN[C@@H]1[C@H](O[C@@H]2O[C@H](CO)[C@H](O)[C@H](O)[C@@H]2O)[C@@H](O)[C@H](O[C@@H]2c3cc(C)c(C(=O)N[C@H](C)C(=O)O)c(O)c3-c3c(cc4c(c3O)C(=O)c3cc(OC)cc(O)c3C4=O)[C@@H]2O)O[C@H]1C [Pradimicin L] |  | no α-glucosidase inhibitory activity | > 100 µg/mL | 
5 | Cc1cc2c(c(O)c1C(=O)O)-c1c(O)c3c(c(O)c1CC2O)C(=O)c1c(O)cc(O)cc1C3=O (stereo not drawn) [Pradimicin Q, pradimicin Q] | 6.46 µM |  |  | 75 µg/mL (≈ 162 µM)
